PMC11409709, “Inhibition of DRP-1 mitochondrial mitophagy and fission by novel α-aminophosphonates bearing pyridine: synthesis, biological evaluations, and computer-aided design” (BMC Chemistry, 2024)
Entries after “also recorded” stand apart in the source; their conditions may differ. Like-named read-outs stand apart in the source and are kept apart here.

Legend:
[1] = test system: hepatocellular carcinoma (HepG-2); experiment: MTT assay, HepG-2; format: cell-based, human; settings: for antitumor impact on HepG-2: compared with DOX
Excerpt: (§1) Mammary gland (MCF-7;# ATCC HTB-22), colorectal adenocarcinoma (Caco-2; # ATCC HTB-37), hepatocellular carcinoma (HepG-2; #ATCC HB-8065), and human lung fibroblast (WI-38; # ATCC CCL-75). The ATCC cell line was obtained via the Holding Company for Biological Products and Vaccines (VACSERA), Cairo, Egypt.
(§2) The MTT test was utilized to ascertain the phosphonate's inhibitory effects on cell growth utilizing the aforementioned cell lines. The basis of this colorimetric assay is the transformation of yellow tetrazolium bromide (MTT) by mitochondrial succinate dehydrogenase in living cells into a purple formazan derivative. 10% fetal bovine serum was added to RPMI-1640 media used to cultivate cell lines. At 37 °C in an incubator with 5% CO2, 100 units/mL of penicillin and 100 µg/mLof streptomycin were introduced as antibiotics. The cell lines were seeded at 1.0 × 10^4 cells/well in a 96-well plate and kept at 37 °C for 24 h with 5% CO2. Following incubation, the cells were subjected to several concentrations of newly synthesized phosphonates and left for 48 h incubation. 20 µL of a 5 mg/mL MTT solution was added and incubated for 4 h after the drug treatment lasted for 48 h. To dissolve the purple formazan produced in each well, 100 µL of dimethyl sulfoxide (DMSO) was applied. Using a plate reader (EXL 800, USA), the colorimetric test is measured and recorded at the absorbance of 570 nm. (A570 of treated samples/A570 of untreated sample) X 100 was used to compute the relative cell viability as a percentage.

Mammary gland (MCF-7) = experiment: MTT assay, MCF-7; format: cell-based, human; settings: for IC50: Homo sapiens, MCF7, 48 h, read-out: Anti-cancer activity MCF-7 (IC50), MTT, 48 h; for antitumor impact on MCF-7: MTT, 48 h, compared with DOX
Excerpt: as §1, §2

DPPH radical scavenging = settings: for IC50: 0.1 mM DPPH in methanol, 30 min dark, 517 nm
Method: (§3) With slight modifications, the DPPH and ABTS methods were used to test the new phosphonate’s free radical scavenging activity. Briefly, one milliliter of a 0.1 mM DPPH in methanol solution and ABTS in distilled water were added to the newly synthesized compounds. For 30 min, the mixture was left in the dark. The synthetic compounds’ ability to scavenge free radicals was compared to that of L. Ascorbic acid. At 517 nm for DPPH and 734 nm for ABTS, optical density was recorded, and the concentration inhibition was computed.
(§4) The percentage of inhibition is equal to [(A control − A test)/A control] × 100, where A control represents the control absorbance and A test represents the test sample absorbance. It was established what sample concentration (IC50) produced 50% inhibition. Every experiment was conducted in triplicate, and the mean ± SE IC50 values were reported.

[2] = test system: bacterial and fungal strains; experiment: Disc diffusion, whole panel (result in words); format: cell-based; settings: 1 mg/mL
Method: (§5) The produced compounds’ antimicrobial activity was evaluated using a panel of two gram-positive bacteria (Bacillus subtilis (#MTCC NO 441) and Staphylococcus aureus (#MTCC NO 96). as well as two Gram-negative bacteria (Pseudomonas aeruginosa (#MTCC NO 1688), Escherichia coli(#MTCC NO 452)). Two fungi [Candida albicans(#MTCC NO 183) and Aspergillus flavus(#MTCC NO 1344)] were used to assess the compounds' anti-fungal properties. Paper discs of Whatman filter paper with a standard size of […] were made, dissolved in DMSO, and then sterilized in an autoclave. A solution of 1 mg/mL was prepared for each drug separately. Paper discs soaked in the desired concentration of the complex solution were aseptically placed in Petri dishes containing nutrient agar media (20 g + 3 g of beef extract + 5 g of peptone) seeded with bacterial and fungal strains. After 24 h of incubation at 36 °C, the inhibitory zones in the petri dishes were measured. There were three copies of every treatment. Using the same protocol as previously described, the antifungal Clotrimazole and the common standard antibiotic Ciprofloxacin were also tested for antibacterial activity at the same concentrations and solvent combinations.

[3] = test system: colorectal adenocarcinoma (Caco-2); experiment: MTT assay, Caco-2; format: cell-based, human; settings: for IC50: Homo sapiens, Caco-2, 48 h, read-out: Anti-cancer activity CaCo-2 (IC50), MTT, 48 h; for antitumor impact on Caco-2: MTT, 48 h, compared with DOX
Excerpt: as §1, §2

ABTS radical scavenging = settings: for IC50: 30 min dark, 734 nm
Method: as §3, §4

[4] = test system: human lung fibroblast (WI-38); experiment: MTT assay, WI-38 normal cells; format: cell-based; settings: 48 h
Excerpt: as §1, §2

Pseudomonas aeruginosa = experiment: Disc diffusion, P. aeruginosa; format: cell-based; settings: inhibition zone vs standard drug, 1 mg/mL, 24 h, 36 °C
Method: as §5

Bacillus subtilis = experiment: Disc diffusion, B. subtilis; format: cell-based; settings: inhibition zone vs standard drug, 1 mg/mL, 24 h, 36 °C
Method: as §5

Staphylococcus aureus = experiment: Disc diffusion, S. aureus; format: cell-based; settings: inhibition zone vs standard drug, 1 mg/mL, 24 h, 36 °C
Method: as §5

Aspergillus flavus = experiment: Disc diffusion, A. flavus; format: cell-based; settings: inhibition zone vs standard drug, 1 mg/mL, 24 h, 36 °C
Method: as §5

Escherichia coli = experiment: Disc diffusion, E. coli; format: cell-based; settings: inhibition zone vs standard drug, 1 mg/mL, 24 h, 36 °C
Method: as §5

Candida albicans = experiment: Disc diffusion, C. albicans; format: cell-based; settings: inhibition zone vs standard drug, 1 mg/mL, 24 h, 36 °C
Method: as §5

[5] = Homo sapiens, HepG2, 48 h, read-out: Anti-cancer activity HepG-2 (IC50), MTT, 48 h

| Compound | IC50 [1, 5] [µM] | antitumor impact on HepG-2 ([1]; MTT, 48 h) | IC50 (Mammary gland (MCF-7)) [µM] | antitumor impact on MCF-7 (Mammary gland (MCF-7)) | DPPH scavenging (DPPH radical scavenging) | melting point [°C] | biocidal effect against bacterial and fungal strains [2] | IC50 [3] [µM] | antitumor impact on Caco-2 [3] | ABTS scavenging (ABTS radical scavenging) | cytotoxic effect on WI-38 normal cells [4] | further results |
| --- | --- | --- | --- | --- | --- | --- | --- | --- | --- | --- | --- | --- |
| CCOP(=O)(OCC)C(Nc1ncc(Cl)cc1Cl)c1ccccc1O (stereo not drawn) [Compound 3g, Diethyl (((3,5-dichloropyridin-2-yl)amino)(2-hydroxyphenyl)methyl)phosphonate] | 2.4 | moderate to weak impact | 2.6 | moderate to weak impact | weak capacity | 100 to 102 | weak | 3 | moderate to weak impact | weak capacity |  |  |
| CCOP(=O)(OCC)C(Nc1ncc(Cl)cc1Cl)c1ccsc1 (stereo not drawn) [Compound 3f, Diethyl (((3,5-dichloropyridin-2-yl)amino)(thiophen-3-yl)methyl)phosphonate] |  |  |  |  | moderate impact | 88 to 90 | moderate | 1.7 | low effect | moderate impact | without any toxic effects |  |
| O=C1O[C@H]([C@@H](O)CO)C(O)=C1O [L-Ascorbic acid, reference compound] |  |  |  |  |  |  |  |  |  |  |  | IC50 (DPPH radical scavenging): 16.81 ± 0.1 µM; IC50 (ABTS radical scavenging): 29.47 ± 0.17 µM |
| COc1cccc2c1C(=O)c1c(O)c3c(c(O)c1C2=O)C[C@@](O)(C(=O)CO)C[C@@H]3O[C@H]1C[C@H](N)[C@H](O)[C@H](C)O1 [DOX, reference compound] |  |  |  |  |  |  |  |  |  |  | highly toxic effects | IC50 ([1]; MTT, 48 h, read-out: Anti-cancer activity HepG-2 (IC50)): 6.72 ± 0.5 µM; IC50 [4]: 6.72 ± 0.5 µM |
| CCOP(=O)(OCC)C(Nc1ncc(Cl)cc1Cl)c1ccc(O)c(OC)c1 (stereo not drawn) [Compound 3a, Diethyl(((3,5-dichloropyridin-2-yl)amino)(4-hydroxy-3-methoxyphenyl)methyl)phosphonate] | 17.9 ± 1.3 |  |  |  | moderate impact | 66 to 68 | moderate | 3.3 | low effect | moderate impact | without any toxic effects |  |
| CCOP(=O)(OCC)C(Nc1ncc(Cl)cc1Cl)c1ccc(O)cc1 (stereo not drawn) [Compound 3b, Diethyl (((3,5-dichloropyridin-2-yl)amino)(4-hydroxyphenyl)methyl)phosphonate] | 66.8 ± 3.5 |  |  |  | weak capacity | 56 to 58 | weak |  |  | weak capacity |  |  |
| CCOP(=O)(OCC)C(Nc1ncc(Cl)cc1Cl)c1ccccc1OC (stereo not drawn) [Compound 3c, Diethyl (((3,5-dichloropyridin-2-yl)amino)(2-methoxyphenyl)methyl)phosphonate] |  | moderate to weak impact | 2.1 | moderate to weak impact | weak capacity | 73 to 75 | moderate | 2.3 | moderate to weak impact | weak capacity |  |  |
| CCOP(=O)(OCC)C(Nc1ncc(Cl)cc1Cl)c1c(O)ccc2ccccc12 (stereo not drawn) [Compound 3d, Diethyl (((3,5-dichloropyridin-2-yl)amino)(2-hydroxynaphthalen-1-yl)methyl)phosphonate] |  |  |  |  |  | 145 to 147 |  |  |  |  | no cytotoxic effects; also recorded: without any toxic effects | activity index P. aeruginosa (Pseudomonas aeruginosa): 60.9%; activity index B. subtilis (Bacillus subtilis): 52.2%; IC50 (DPPH radical scavenging): 20.04 ± 0.14 µM; activity index S. aureus (Staphylococcus aureus): 62.5%; activity index A. flavus (Aspergillus flavus): 72%; activity index E. coli (Escherichia coli): 42.3%; IC50 (ABTS radical scavenging): 29.14 ± 0.18 µM; activity index C. albicans (Candida albicans): 81.5% |
| CCOP(=O)(OCC)C(Nc1ncc(Cl)cc1Cl)c1ccc(N(C)C)cc1 (stereo not drawn) [Compound 3e, Diethyl (((3,5-dichloropyridin-2-yl)amino)(4-(dimethylamino)phenyl)methyl)phosphonate] | 3.1 | moderate to weak impact | 3.4 | moderate to weak impact | weak capacity | 70 to 72 | weak |  | moderate to weak impact | weak capacity |  |  |
